# In patent US10023558B2, “Compounds” (CHIESI FARMACEUTICI S.P.A., priority 2016, dated 2018):
# Molecular target: T1, human neutrophil elastase (HNE) (Homo sapiens, UniProt P08246)
# T1 construct: purchased Sigma E8140
# T1 sequence (P08246 30-247 limits assumed): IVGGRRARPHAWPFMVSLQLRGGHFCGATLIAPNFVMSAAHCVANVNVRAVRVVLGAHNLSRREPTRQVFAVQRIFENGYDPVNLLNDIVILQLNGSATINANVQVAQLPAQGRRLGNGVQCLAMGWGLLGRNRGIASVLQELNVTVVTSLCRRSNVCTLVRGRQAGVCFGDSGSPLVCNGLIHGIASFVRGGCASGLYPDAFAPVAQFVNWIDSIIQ
# Test: HNE Enzyme Assay (fluorogenic peptide substrate MeOSuc-Ala-Ala-Pro-Val-AMC)
# Assay type: biochemical
# Conditions: human leukocyte elastase 0.00072 U/mL, substrate 100 μM, 25° C., 30 minutes, at least two separate experiments; read-out: HNE inhibition (IC50 values)
# Procedure, shortened: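 Human leukocyte elastase (0.00072 U/mL) with 100 μM MeOSuc-AAPV-AMC in Tris pH 7.5 buffer with NaCl, CaCl2, Brij-35, 1% DMSO, 30 min at 25° C, stopped with soybean trypsin inhibitor. AMC fluorescence (ex 380/em 460 nm); IC50 from concentration-response as % inhibition of control, at least two experiments.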
row,IC50 [nM],Compound
1,< 1,"Cc1c(-c2ccnn2-c2ccc(C#N)cc2)n(C(=O)N[C@H]2CC[C@H](CNC(=O)C[N+](C)(C)C)CC2)c(=O)n1-c1cccc(C(F)(F)F)c1 [Example 86, {[(Trans-4-{[5-[2-(4-cyano-phenyl)-2H-pyrazol-3-yl]-4-methyl-2-oxo-3-(3-trifluoromethyl-phenyl)-2,3-dihydro-imidazole-1-carbonyl]-amino}-cyclohexylmethyl)-carbamoyl]-methyl}-trimethyl-ammonium benzene sulfonate]"
2,< 1,"Cc1c(-c2ccnn2-c2ccc(C#N)cc2)n(C(=O)N[C@@H](C)c2ncc(C[N+](C)(C)C)o2)c(=O)n1-c1cccc(C(F)(F)F)c1 [Example 64, [2-((S)-1-{[5-[2-(4-Cyano-phenyl)-2H-pyrazol-3-yl]-4-methyl-2-oxo-3-(3-trifluoromethyl-phenyl)-2,3-dihydro-imidazole-1-carbonyl]-amino}-ethyl)-oxazol-5-ylmethyl]-trimethyl-ammonium benzene sulfonate]"
3,< 1,"Cc1c(-c2ccnn2-c2ccc(C#N)cc2)n(C(=O)N[C@H]2C[C@@H]3C[N+](C)(C)C[C@@H]3C2)c(=O)n1-c1cccc(C(F)(F)F)c1 [Example 56, (3aR,5S,6aS)-5-{[5-[2-(4-Cyano-phenyl)-2H-pyrazol-3-yl]-4-methyl-2-oxo-3-(3-trifluoromethyl-phenyl)-2,3-dihydro-imidazole-1-carbonyl]-amino}-2,2-dimethyl-octahydro-cyclopenta[c]pyrrolium benzene sulfonate]"
4,< 1,"Cc1c(-c2ccnn2-c2ccc(C#N)cc2)n(C(=O)N[C@H]2CC[C@H](C(=O)NC3CC[N+](C)(C)CC3)CC2)c(=O)n1-c1cccc(C(F)(F)F)c1 [Example 90, 4-[(Trans-4-{[5-[2-(4-cyano-phenyl)-2H-pyrazol-3-yl]-4-methyl-2-oxo-3-(3-trifluoromethyl-phenyl)-2,3-dihydro-imidazole-1-carbonyl]-amino}-cyclohexanecarbonyl)-amino]-1,1-dimethyl-piperidinium benzene sulfonate]"
5,< 1,"Cc1c(-c2ccnn2-c2ccc(C#N)cc2)n(C(=O)N[C@@H](C)C(=O)N(C)CC2CC[N+](C)(C)CC2)c(=O)n1-c1cccc(C(F)(F)F)c1 [Example 62, 4-{[((S)-2-{[5-[2-(4-Cyano-phenyl)-2H-pyrazol-3-yl]-4-methyl-2-oxo-3-(3-trifluoromethyl-phenyl)-2,3-dihydro-imidazole-1-carbonyl]-amino}-propionyl)-methyl-amino]-methyl}-1,1-dimethyl-piperidinium benzene sulfonate]"
6,< 1,"Cc1c(-c2ccnn2-c2ccc(C#N)cc2)n(C(=O)NC2(C)CCN(C(=O)CN(C)C)CC2)c(=O)n1-c1cccc(C(F)(F)F)c1 [Example 25, 5-[2-(4-Cyano-phenyl)-2H-pyrazol-3-yl]-4-methyl-2-oxo-3-(3-trifluoromethyl-phenyl)-2,3-dihydro-imidazole-1-carboxylic acid [1-(2-dimethylamino-acetyl)-4-methyl-piperidin-4-yl]-amide]"
7,< 1,"Cc1c(-c2ccnn2-c2ccc(C#N)cc2)n(C(=O)N[C@@H](C)c2ncc(CN(C)C)o2)c(=O)n1-c1cccc(C(F)(F)F)c1 [Example 16, 5-[2-(4-Cyano-phenyl)-2H-pyrazol-3-yl]-4-methyl-2-oxo-3-(3-trifluoromethyl-phenyl)-2,3-dihydro-imidazole-1-carboxylic acid [(S)-1-(5-dimethylaminomethyl-oxazol-2-yl)-ethyl]-amide]"
8,< 1,"Cc1c(-c2ccnn2-c2ccc(C#N)cc2)n(C(=O)N[C@H]2CC[C@H]([N+](C)(C)C)CC2)c(=O)n1-c1cccc(C(F)(F)F)c1 [Example 41, (Trans-4-{[5-[2-(4-cyano-phenyl)-2H-pyrazol-3-yl]-4-methyl-2-oxo-3-(3-trifluoromethyl-phenyl)-2,3-dihydro-imidazole-1-carbonyl]-amino}-cyclohexyl)-trimethyl-ammonium benzene sulfonate]"
9,< 1,"Cc1c(-c2ccnn2-c2ccc(C#N)cc2)n(C(=O)NC2CCN(C(=O)NCC[N+](C)(C)C)CC2)c(=O)n1-c1cccc(C(F)(F)F)c1 [Example 92, {2-[(4-{[5-[2-(4-Cyano-phenyl)-2H-pyrazol-3-yl]-4-methyl-2-oxo-3-(3-trifluoromethyl-phenyl)-2,3-dihydro-imidazole-1-carbonyl]-amino}-piperidine-1-carbonyl)-amino]-ethyl}-trimethyl-ammonium benzene sulfonate]"
10,< 1,"Cc1c(-c2ccnn2-c2ccc(C#N)cc2)n(C(=O)N[C@H]2C[C@H](C(=O)NCC[N+](C)(C)C)C2)c(=O)n1-c1cccc(C(F)(F)F)c1 [Example 83, {2-[(Trans-3-{[5-[2-(4-cyano-phenyl)-2H-pyrazol-3-yl]-4-methyl-2-oxo-3-(3-trifluoromethyl-phenyl)-2,3-dihydro-imidazole-1-carbonyl]-amino}-cyclobutanecarbonyl)-amino]-ethyl}-trimethyl-ammonium benzene sulfonate]"
11,< 1,"Cc1c(-c2ccnn2-c2ccc(C#N)cc2)n(C(=O)N[C@@H](C)c2nc(C[N+](C)(C)C)no2)c(=O)n1-c1cccc(C(F)(F)F)c1 [Example 60, [5-((S)-1-{[5-[2-(4-Cyano-phenyl)-2H-pyrazol-3-yl]-4-methyl-2-oxo-3-(3-trifluoromethyl-phenyl)-2,3-dihydro-imidazole-1-carbonyl]-amino}-ethyl)-[1,2,4]oxadiazol-3-ylmethyl]-trimethyl-ammonium benzene sulfonate]"
12,< 1,"COc1ccc(CN2CC3C(C2)C3NC(=O)n2c(-c3ccnn3-c3ccc(C#N)cc3)c(C)n(-c3cccc(C(F)(F)F)c3)c2=O)cc1 (centres unmarked) [Example 7, 5-[2-(4-Cyano-phenyl)-2H-pyrazol-3-yl]-4-methyl-2-oxo-3-(3-trifluoromethyl-phenyl)-2,3-dihydro-imidazole-1-carboxylic acid [3-(4-methoxy-benzyl)-3-aza-bicyclo[3.1.0]hex-6-yl]-amide]"
13,< 1,"Cc1c(-c2ccnn2-c2ccc(C#N)cc2)n(C(=O)N[C@@H]2C[C@H]3CC[C@@H](C2)[N+]3(C)C)c(=O)n1-c1cccc(C(F)(F)F)c1 [Example 39, (1R,3S,5S)-3-{[5-[2-(4-Cyano-phenyl)-2H-pyrazol-3-yl]-4-methyl-2-oxo-3-(3-trifluoromethyl-phenyl)-2,3-dihydro-imidazole-1-carbonyl]-amino}-8,8-dimethyl-8-azonia-bicyclo[3.2.1]octane benzene sulfonate]"
14,< 1,"Cc1c(-c2ccnn2-c2ccc(C#N)cc2)n(C(=O)N[C@H]2CC[C@H](N(C)C)CC2)c(=O)n1-c1cccc(C(F)(F)F)c1 [Example 9, 5-[2-(4-Cyano-phenyl)-2H-pyrazol-3-yl]-4-methyl-2-oxo-3-(3-trifluoromethyl-phenyl)-2,3-dihydro-imidazole-1-carboxylic acid (trans-4-dimethylamino-cyclohexyl)-amide]"
15,< 1,"Cc1cc(C[N+](C)(C)[C@H]2CC[C@H](NC(=O)n3c(-c4ccnn4-c4ccc(C#N)cc4)c(C)n(-c4cccc(C(F)(F)F)c4)c3=O)CC2)n(C)n1 [Example 76, (4-{[5-[2-(4-Cyano-phenyl)-2H-pyrazol-3-yl]-4-methyl-2-oxo-3-(3-trifluoromethyl-phenyl)-2,3-dihydro-imidazole-1-carbonyl]-amino}-cyclohexyl)-(2,5-dimethyl-2H-pyrazol-3-ylmethyl)-dimethyl-ammonium chloride]"
16,< 1,"CC[N+]1(CC)CCC(NC(=O)n2c(-c3ccnn3-c3ccc(C#N)cc3)c(C)n(-c3cccc(C(F)(F)F)c3)c2=O)CC1 [Example 40, 4-{[5-[2-(4-Cyano-phenyl)-2H-pyrazol-3-yl]-4-methyl-2-oxo-3-(3-trifluoromethyl-phenyl)-2,3-dihydro-imidazole-1-carbonyl]-amino}-1,1-diethyl-piperidinium benzene sulfonate]"
17,< 1,"Cc1c(-c2ccnn2-c2ccc(C#N)cc2)n(C(=O)N[C@H]2CC[C@H]([N+](C)(C)Cc3ncon3)CC2)c(=O)n1-c1cccc(C(F)(F)F)c1 [Example 72, (Trans-4-{[5-[2-(4-cyano-phenyl)-2H-pyrazol-3-yl]-4-methyl-2-oxo-3-(3-trifluoromethyl-phenyl)-2,3-dihydro-imidazole-1-carbonyl]-amino}-cyclohexyl)-dimethyl-[1,2,4]oxadiazol-3-ylmethyl-amnionium chloride]"
18,< 1,"Cc1c(-c2ccnn2-c2ccc(C#N)cc2)n(C(=O)N[C@H]2CC[N+](C)(C)C2)c(=O)n1-c1cccc(C(F)(F)F)c1 [Example 34, (S)-3-{[5-[2-(4-Cyano-phenyl)-2H-pyrazol-3-yl]-4-methyl-2-oxo-3-(3-trifluoromethyl-phenyl)-2,3-dihydro-imidazole-1-carbonyl]-amino}-1,1-dimethyl-pyrrolidinium benzenesulfonate]"
19,< 1,"Cc1c(-c2ccnn2-c2ccc(C#N)cc2)n(C(=O)NC2CCN(C(=O)C(F)(F)F)CC2)c(=O)n1-c1cccc(C(F)(F)F)c1 [Example 4, 5-[2-(4-Cyano-phenyl)-2H-pyrazol-3-yl]-4-methyl-2-oxo-3-(3-trifluoromethyl-phenyl)-2,3-dihydro-imidazole-1-carboxylic acid [1-(2,2,2-trifluoro-acetyl)-piperidin-4-yl]-amide]"
20,1 to 10,"Cc1c(-c2ccnn2-c2ccc(C#N)cc2)n(C(=O)N[C@H]2CC[C@@H](C[N+](C)(C)C)CC2)c(=O)n1-c1cccc(C(F)(F)F)c1 [Example 53, (Cis-4-{[5-[2-(4-cyano-phenyl)-2H-pyrazol-3-yl]-4-methyl-2-oxo-3-(3-trifiuoromethyl-phenyl)-2,3-dihydro-imidazole-1-carbonyl]-amino}-cyclohexylmethyl)-trimethyl-ammonium benzene sulfonate]"
